Entries after “also recorded” stand apart in the source; their conditions may differ.
How the values were obtained:
[1] = test system: human peripheral blood NK cells; assay: 4 h 51Cr-release NK cytotoxicity assay, in vitro preincubation with agonist, K562 leukemia cells as targets; format: cell-based; details: for activity of natural killer cells following preincubation: 10 nM Cl-IB-MECA, 18 hours preincubation, K562 targets, E:T ratio 1:50, FIG. 1
Method: Murine splenocytes were derived from spleens of ICR mice and human mononuclear cells were separated by Ficoll-Hypaque gradient from heparinized blood of healthy normal volunteers.
(§1) The effect of Cl-IB-MECA on the activity of human peripheral blood NK cells was assayed by a standard 4 h ^51Cr-release assay using K562 leukemia cells as targets. Splenocytes or human mononuclear cells were cultured at a concentration of 5×10^5 cells/well in 96 well round bottom plates, and used as the effector (E) cells. The cells were preincubated with 10 nM Cl-IB-MECA for 18 hours, then the agonist was washed out from the wells and the cells were re-suspended in RPMI containing 5% FCS. K562 cells were used as the targets (T) and were labeled with 100 μci of Na2[^51Cr]O4 at 37° C., for 1 hr.
(§2) After extensive washing to remove the excess ^51Cr, target cells (1×10^4) were re-suspended in RPMI and mixed with the effector cells at an E:T ratio of 1:50 in a total volume of 200 μl (triplicate assays). After 4 hours of incubation at 37° C. in 5% CO2, plates were centrifuged, and the supernatants were counted in a gamma counter (LKB).
(§3) NK cytotoxicity was calculated using the following equation (CPM: counts per minute): [formula]
(§4) CPM sample, CPM spontaneous and CPM maximal were determined by measuring the CPM of the supernatants of the target cells in the presence of […], the assay medium or in the presence of 1% triton, respectively. It should be noted that spontaneous release was below 10% of the maximal release throughout this experiment.

B-16 melanoma cells = assay: Adoptive transfer of splenocytes to melanoma bearing mice, count of lung melanoma foci; format: in vivo; details: splenocytes from 6 μg/kg Cl-IB-MECA treated mice engrafted 4 days after B-16 inoculation; day 15; versus non-activated splenocytes or control; FIG. 4
Excerpt: In another experiment, the capability of the “activated” splenocytes to act in vivo against melanoma cells was examined. The “non-activated” and “activated” splenocytes were engrafted to mice that were inoculated 4 days earlier with B-16 melanoma cells (2.5×10^5). As the control served mice that were inoculated with the B-16 melanoma cells however not engrafted with splenocytes. The mice were sacrificed on day 15 and their lungs were removed. The number of lung melanoma foci was counted, the results for which are depicted in FIG. 4.

NK cells = assay: NK activity (51Cr assay) of splenocytes from B-16 melanoma bearing mice treated orally; format: in vivo, C57B1/6J mice; details: for NK activity of splenocytes versus vehicle control group: 15 days, B-16 melanoma inoculated mice, FIG. 3
Method: In a further study C57B1/6J mice were used as the model mice which will develop metastatic lung foci after 15 days. The C57B1/6J mice were inoculated intravenously with B-16 melanoma cells (2.5×10^5) and treated daily orally with 6 or 9 μg/kg body weight of Cl-IB-MECA (starting one day after tumor inoculation). After 15 days, the mice were sacrificed and spleens were removed.
Splenocytes were separated and tested for NK activity using the ^51Cr assay as described above. […] The splenocytes derived from the group treated with 6 μg/kg body weight of Cl-IB-MECA were designated as “activated” cells and those derived from the control group were designated as “non-activated” splenocytes.

murine NK cells = assay: NK activity (51Cr assay) of splenocytes from ICR mice after oral administration; format: in vivo; details: FIG. 2; for NK activity of splenocytes derived from treated mice: 6 μg/kg orally for two consecutive days
Method: as §1, §2, §3, §4
ICR mice were orally administered for two consecutive days with 6 μg/kg body weight of Cl-IB-MECA. After 4, 11 and 18 days, mice were sacrificed and spleens were removed. Splenocytes were separated and tested for NK activity using the ^51Cr assay as described above.

Row | Structure (SMILES) | effect of the A3 receptor antagonist on the stimulatory effect of Cl-IB-MECA on NK activity ([1]; MRS-1220 introduced with Cl-IB-MECA, FIG. 1) | activity of natural killer cells following preincubation [1] | activity of natural killer cells following preincubation ([1]; listed as CI-IB-MECA) | development of lung metastatic foci (B-16 melanoma cells) | NK activity of splenocytes versus vehicle control group (NK cells; 6 μg/kg daily orally) | NK activity of splenocytes versus vehicle control group (NK cells; 9 μg/kg daily orally) | NK cell activity in splenocytes derived from treated melanoma bearing mice (NK cells; FIG. 3 legend, dose not stated there) | NK activity of splenocytes derived from treated mice (murine NK cells; after 4 days) | NK activity of splenocytes derived from treated mice (murine NK cells; after 11 days) | NK activity of splenocytes derived from treated mice (murine NK cells; following 18 days) | time of maximal activation of murine NK cells (murine NK cells; oral administration)
1 | O=C(Cc1ccccc1)Nc1nc2ccc(Cl)cc2c2nc(-c3ccco3)nn12 [MRS-1220, 9-chloro-2-(2-furanyl)-5-[(phenylacetyl)amino] [1,2,4,] -triazolo[1,5-c] quinazoline] | reversed the stimulatory effect; also recorded: abolished the stimulatory effect | – | – | – | – | – | – | – | – | – | –
2 | CNC(=O)[C@H]1O[C@@H](n2cnc3c(NCc4cccc(I)c4)nc(Cl)nc32)[C@H](O)[C@@H]1O [Cl-IB-MECA, 2-chloro-N^6-(3-iodobenzyl)-adenosine-5′-N-methyl-uronamide] | – | potentiation | significant dose dependent increase | decreased number of lung foci | marked increase | marked increase | increased NK cell activity | marked increase | high activity was still observed | only slight increase | 4 days

Source: patent US20040204481A1, “Activation of natural killer cells by adenosine A3 receptor agonists” (priority 2001, published 2004)
